From US9493455B2, “Azaindole derivatives as inhibitors of protein kinases” (ORIBASE PHARMA, priority 2012, dated 2016)

Key:
EGFR (ErbB1) = molecular target: T1, EGFR (ErbB1) (Homo sapiens, UniProt P00533); assay: In vitro kinase assay (Z′-LYTE); type: biochemical; details: read-out: % of inhibition of the kinase compared to the control
T1 construct: purchased Invitrogen
Description: (§1) The inhibitory activity of the compounds on several kinases including BRAF, EGFR (ErbB1), EGFR (ErbB1) T790M L858R, FGFR2, KDR (VEGFR2), PDGFRA (PDGFR alpha), SRC and other was evaluated by Invitrogen using the Z′-LYTE® technology. Briefly, the Z′-LYTE® biochemical assay employs a fluorescence-based, coupled-enzyme format and is based on the differential sensitivity of phosphorylated and non-phosphorylated peptides to proteolytic cleavage. The peptide substrate is labeled with two fluorophores—one at each end—that make up a FRET pair. A ratiometric method, which calculates the ratio (the Emission Ratio) of donor emission to acceptor emission after excitation of the donor fluorophore at 400 nm, is used to quantitate reaction progress.
(§2) The compounds are screened in 1% DMSO (final) in the well. For 10 point titrations, 3-fold serial dilutions are conducted from the starting concentration. All Peptide/Kinase Mixtures are diluted to a 2× working concentration in the appropriate Kinase Buffer. All ATP Solutions are diluted to a 4× working concentration in Kinase Buffer (50 mM HEPES pH 7.5, 0.01% BRIJ-35, 10 mM MgCl2, 1 mM EGTA). ATP Km apparent is previously determined using a Z′-LYTE® assay.
(§3) Each compound was incubated at a concentration of 100 nM (excepted to test the activity against ABL and ABL T315I for which the compounds were incubated at a concentration of 10 μM) and the tables B1 to B12 summarize the results obtained showing the inhibitory power of a compound. The inhibitory activity of OR0512 was also investigated using the same assays and the kinases for which activity was inhibited at more than 50% at the concentration of 100 nM of OR0512 are listed in the table B13.

KDR (VEGFR2) = molecular target: T2, KDR (VEGFR2) (Homo sapiens, UniProt P35968); assay: In vitro kinase assay (Z′-LYTE); type: biochemical; details: read-out: % of inhibition of the kinase compared to the control
T2 construct: purchased Invitrogen
Description: as §1, §2, §3

ABL T315I = molecular target: T3, ABL T315I (Homo sapiens, UniProt P00519, T315I); assay: In vitro kinase assay (Z′-LYTE); type: biochemical; details: read-out: % of inhibition of the kinase compared to the control
T3 construct: purchased Invitrogen
Description: as §1, §2, §3

FGFR2 = molecular target: T4, FGFR2 (Homo sapiens, UniProt P21802); assay: In vitro kinase assay (Z′-LYTE); type: biochemical; details: read-out: % of inhibition of the kinase compared to the control
T4 construct: purchased Invitrogen
Description: as §1, §2, §3

FGFR1 = molecular target: T5, FGFR1 (Homo sapiens, UniProt P11362); assay: In vitro kinase assay (Z′-LYTE); type: biochemical; details: read-out: % of inhibition of the kinase compared to the control
T5 construct: purchased Invitrogen
Description: as §1, §2, §3

PDGFRA (PDGFR alpha) = molecular target: T6, PDGFRA (PDGFR alpha) (Homo sapiens, UniProt P16234); assay: In vitro kinase assay (Z′-LYTE); type: biochemical; details: read-out: % of inhibition of the kinase compared to the control
T6 construct: purchased Invitrogen
Description: as §1, §2, §3

SRC = molecular target: T7, SRC (Homo sapiens, UniProt P12931); assay: In vitro kinase assay (Z′-LYTE); type: biochemical; details: read-out: % of inhibition of the kinase compared to the control
T7 construct: purchased Invitrogen
Description: as §1, §2, §3

EGFR (ErbB1) T790M L858R = molecular target: T8, EGFR (ErbB1) T790M L858R (Homo sapiens, UniProt P00533, L858R/T790M); assay: In vitro kinase assay (Z′-LYTE); type: biochemical; details: read-out: % of inhibition of the kinase compared to the control
T8 construct: purchased Invitrogen
Description: as §1, §2, §3

ABL = molecular target: T9, ABL (Homo sapiens, UniProt P00519); assay: In vitro kinase assay (Z′-LYTE); type: biochemical; details: read-out: % of inhibition of the kinase compared to the control
T9 construct: purchased Invitrogen
Description: as §1, §2, §3

VEGFR1 = molecular target: T10, VEGFR1 (Homo sapiens, UniProt P17948); assay: In vitro kinase assay (Z′-LYTE); type: biochemical; details: read-out: % of inhibition of the kinase compared to the control
T10 construct: purchased Invitrogen
Description: as §1, §2, §3

BRAF = molecular target: T11, BRAF (Homo sapiens, UniProt P15056); assay: In vitro kinase assay (Z′-LYTE); type: biochemical; details: compound 100 nM; ATP 100 μM; read-out: % of inhibition of the kinase compared to the control
T11 construct: purchased Invitrogen
Description: as §1, §2, §3

PDGFRB = molecular target: T12, PDGFRB (Homo sapiens, UniProt P09619); assay: In vitro kinase assay (Z′-LYTE); type: biochemical; details: read-out: % of inhibition of the kinase compared to the control
T12 construct: purchased Invitrogen
Description: as §1, §2, §3

BxPC-3 = assay: In vitro cell proliferation assay (MTT); type: cell-based; details: Homo sapiens, BXPC-3, 72 h
Description: (§4) Cancer cell lines (5×10^3 cells per well) or HUVEC (1×10^4 cells per well) or HRMEC (1×10^4 cells per well) were distributed in 96-well plates and incubating in duplicate with escalating concentrations (10 nM to 3 μM) of compounds for 72 hr. Cell proliferation was measured using MTT (3 [4,5-dimethylthiazol-2-yl]-2,5-diphenyltetrazolium bromide).

HepG2 = assay: In vitro cell proliferation assay (MTT); type: cell-based; details: Homo sapiens, HepG2, 72 h
Description: as §4

HUVEC = assay: In vitro cell proliferation assay (MTT); type: cell-based; details: Homo sapiens, 72 h
Description: as §4

T8 sequence (P00533 25-1210 T790M/L858R): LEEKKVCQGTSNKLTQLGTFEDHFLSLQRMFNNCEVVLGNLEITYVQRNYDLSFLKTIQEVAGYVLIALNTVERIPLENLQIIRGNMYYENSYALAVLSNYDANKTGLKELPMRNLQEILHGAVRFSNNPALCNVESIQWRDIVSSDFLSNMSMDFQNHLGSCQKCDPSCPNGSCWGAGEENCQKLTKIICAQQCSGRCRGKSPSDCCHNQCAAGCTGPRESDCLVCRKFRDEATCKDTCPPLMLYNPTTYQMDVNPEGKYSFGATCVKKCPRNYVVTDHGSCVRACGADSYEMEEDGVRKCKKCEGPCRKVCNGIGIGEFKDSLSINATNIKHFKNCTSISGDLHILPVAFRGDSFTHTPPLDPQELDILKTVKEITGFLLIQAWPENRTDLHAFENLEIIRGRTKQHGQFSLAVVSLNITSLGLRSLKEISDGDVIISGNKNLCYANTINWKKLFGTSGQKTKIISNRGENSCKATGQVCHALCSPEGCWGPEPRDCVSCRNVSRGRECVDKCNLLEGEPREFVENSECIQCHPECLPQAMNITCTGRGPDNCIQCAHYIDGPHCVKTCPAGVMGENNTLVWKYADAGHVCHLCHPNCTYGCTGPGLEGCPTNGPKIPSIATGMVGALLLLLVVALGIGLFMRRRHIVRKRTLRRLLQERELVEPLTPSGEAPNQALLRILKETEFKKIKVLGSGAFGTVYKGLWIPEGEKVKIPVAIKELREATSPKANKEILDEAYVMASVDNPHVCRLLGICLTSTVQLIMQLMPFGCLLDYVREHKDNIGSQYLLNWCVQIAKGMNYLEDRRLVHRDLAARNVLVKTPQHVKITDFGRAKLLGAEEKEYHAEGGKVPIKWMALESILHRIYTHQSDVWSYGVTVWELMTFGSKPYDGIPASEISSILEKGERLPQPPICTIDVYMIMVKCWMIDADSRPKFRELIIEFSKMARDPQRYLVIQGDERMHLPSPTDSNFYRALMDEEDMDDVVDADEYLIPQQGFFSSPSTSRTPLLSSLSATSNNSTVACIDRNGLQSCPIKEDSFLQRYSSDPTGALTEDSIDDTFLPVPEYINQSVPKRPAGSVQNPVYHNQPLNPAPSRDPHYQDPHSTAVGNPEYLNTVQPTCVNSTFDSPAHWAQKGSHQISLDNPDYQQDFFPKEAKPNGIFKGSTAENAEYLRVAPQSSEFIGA
T4 sequence (P21802 22-821): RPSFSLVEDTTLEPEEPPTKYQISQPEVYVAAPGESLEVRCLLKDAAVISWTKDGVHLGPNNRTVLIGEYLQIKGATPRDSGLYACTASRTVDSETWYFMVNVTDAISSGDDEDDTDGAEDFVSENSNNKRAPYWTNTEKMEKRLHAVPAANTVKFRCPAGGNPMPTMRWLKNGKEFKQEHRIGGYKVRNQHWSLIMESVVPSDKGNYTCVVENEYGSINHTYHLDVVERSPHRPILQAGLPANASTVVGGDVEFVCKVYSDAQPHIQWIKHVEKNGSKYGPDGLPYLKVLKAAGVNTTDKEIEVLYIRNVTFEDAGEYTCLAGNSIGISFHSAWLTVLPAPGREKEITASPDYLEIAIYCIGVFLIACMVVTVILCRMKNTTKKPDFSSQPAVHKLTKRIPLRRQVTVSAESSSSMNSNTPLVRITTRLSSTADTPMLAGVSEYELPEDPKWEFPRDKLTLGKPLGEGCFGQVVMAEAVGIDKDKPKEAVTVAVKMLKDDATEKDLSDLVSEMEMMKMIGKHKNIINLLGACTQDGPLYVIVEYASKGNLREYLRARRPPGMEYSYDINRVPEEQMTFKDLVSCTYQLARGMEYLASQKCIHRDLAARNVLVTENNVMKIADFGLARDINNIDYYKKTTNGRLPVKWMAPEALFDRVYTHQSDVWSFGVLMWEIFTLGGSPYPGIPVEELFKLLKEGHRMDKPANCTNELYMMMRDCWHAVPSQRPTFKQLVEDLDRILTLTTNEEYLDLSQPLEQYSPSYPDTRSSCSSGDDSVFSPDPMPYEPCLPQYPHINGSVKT
T12 sequence (P09619 33-1106): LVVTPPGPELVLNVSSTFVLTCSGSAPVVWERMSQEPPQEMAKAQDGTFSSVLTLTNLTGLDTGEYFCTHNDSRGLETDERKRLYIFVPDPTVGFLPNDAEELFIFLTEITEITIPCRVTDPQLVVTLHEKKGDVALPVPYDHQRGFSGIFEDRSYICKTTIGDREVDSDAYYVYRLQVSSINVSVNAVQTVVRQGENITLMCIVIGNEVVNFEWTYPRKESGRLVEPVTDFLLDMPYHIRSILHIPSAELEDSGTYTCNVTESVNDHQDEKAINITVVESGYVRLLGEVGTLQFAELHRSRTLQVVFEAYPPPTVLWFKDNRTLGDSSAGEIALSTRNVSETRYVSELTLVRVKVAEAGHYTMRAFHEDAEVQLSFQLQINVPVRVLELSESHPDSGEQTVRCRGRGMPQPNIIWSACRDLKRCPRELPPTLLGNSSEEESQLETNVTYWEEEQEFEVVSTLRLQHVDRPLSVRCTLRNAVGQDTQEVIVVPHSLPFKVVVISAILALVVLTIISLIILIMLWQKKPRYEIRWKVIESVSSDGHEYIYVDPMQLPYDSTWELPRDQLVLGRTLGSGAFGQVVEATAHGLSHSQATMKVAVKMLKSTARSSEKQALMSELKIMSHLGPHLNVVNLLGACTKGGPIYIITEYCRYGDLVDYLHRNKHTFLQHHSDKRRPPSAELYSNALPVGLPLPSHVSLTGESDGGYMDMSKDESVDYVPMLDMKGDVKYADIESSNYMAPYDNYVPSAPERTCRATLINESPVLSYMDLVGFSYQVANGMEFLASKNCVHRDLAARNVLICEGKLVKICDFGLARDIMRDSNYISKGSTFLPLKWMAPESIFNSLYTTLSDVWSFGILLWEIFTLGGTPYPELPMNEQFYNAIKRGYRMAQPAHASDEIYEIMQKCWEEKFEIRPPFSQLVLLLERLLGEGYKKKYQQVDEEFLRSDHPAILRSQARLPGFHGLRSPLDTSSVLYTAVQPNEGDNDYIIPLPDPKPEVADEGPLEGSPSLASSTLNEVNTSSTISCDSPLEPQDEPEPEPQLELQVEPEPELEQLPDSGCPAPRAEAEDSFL
T10 sequence (P17948 27-1338): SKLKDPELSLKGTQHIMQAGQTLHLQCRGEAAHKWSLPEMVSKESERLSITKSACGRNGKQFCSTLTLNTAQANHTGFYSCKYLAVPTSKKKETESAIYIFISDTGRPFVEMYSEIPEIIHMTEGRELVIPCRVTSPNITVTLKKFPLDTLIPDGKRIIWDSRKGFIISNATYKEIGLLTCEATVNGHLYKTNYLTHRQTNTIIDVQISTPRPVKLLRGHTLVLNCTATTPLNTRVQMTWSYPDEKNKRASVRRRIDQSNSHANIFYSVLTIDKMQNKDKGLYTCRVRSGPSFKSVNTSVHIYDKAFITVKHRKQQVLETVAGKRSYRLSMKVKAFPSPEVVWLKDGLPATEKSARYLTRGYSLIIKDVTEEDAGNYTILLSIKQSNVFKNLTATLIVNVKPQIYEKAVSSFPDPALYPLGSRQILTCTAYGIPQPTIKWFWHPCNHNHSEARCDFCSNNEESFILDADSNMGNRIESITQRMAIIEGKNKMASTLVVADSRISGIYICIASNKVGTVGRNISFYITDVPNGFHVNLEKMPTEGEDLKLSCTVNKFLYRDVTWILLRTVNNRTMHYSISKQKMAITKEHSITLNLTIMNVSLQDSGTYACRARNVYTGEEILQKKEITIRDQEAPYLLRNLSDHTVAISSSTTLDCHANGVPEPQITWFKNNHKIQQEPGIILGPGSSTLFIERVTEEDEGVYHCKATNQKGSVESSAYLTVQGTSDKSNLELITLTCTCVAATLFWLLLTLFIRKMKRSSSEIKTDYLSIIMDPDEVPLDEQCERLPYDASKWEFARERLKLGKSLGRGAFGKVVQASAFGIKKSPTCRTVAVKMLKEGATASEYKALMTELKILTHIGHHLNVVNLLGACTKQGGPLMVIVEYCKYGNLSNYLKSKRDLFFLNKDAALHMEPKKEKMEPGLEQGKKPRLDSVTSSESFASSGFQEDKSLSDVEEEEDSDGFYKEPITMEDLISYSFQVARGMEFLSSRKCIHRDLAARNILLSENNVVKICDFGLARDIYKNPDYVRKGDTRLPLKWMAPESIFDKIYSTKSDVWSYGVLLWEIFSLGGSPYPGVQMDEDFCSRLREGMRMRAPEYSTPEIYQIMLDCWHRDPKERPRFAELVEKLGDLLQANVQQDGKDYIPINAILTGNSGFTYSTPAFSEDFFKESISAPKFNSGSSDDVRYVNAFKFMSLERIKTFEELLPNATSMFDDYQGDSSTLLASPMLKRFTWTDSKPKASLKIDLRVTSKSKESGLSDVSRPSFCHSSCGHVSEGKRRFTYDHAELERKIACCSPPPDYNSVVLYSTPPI
T7 sequence (P12931 whole entry): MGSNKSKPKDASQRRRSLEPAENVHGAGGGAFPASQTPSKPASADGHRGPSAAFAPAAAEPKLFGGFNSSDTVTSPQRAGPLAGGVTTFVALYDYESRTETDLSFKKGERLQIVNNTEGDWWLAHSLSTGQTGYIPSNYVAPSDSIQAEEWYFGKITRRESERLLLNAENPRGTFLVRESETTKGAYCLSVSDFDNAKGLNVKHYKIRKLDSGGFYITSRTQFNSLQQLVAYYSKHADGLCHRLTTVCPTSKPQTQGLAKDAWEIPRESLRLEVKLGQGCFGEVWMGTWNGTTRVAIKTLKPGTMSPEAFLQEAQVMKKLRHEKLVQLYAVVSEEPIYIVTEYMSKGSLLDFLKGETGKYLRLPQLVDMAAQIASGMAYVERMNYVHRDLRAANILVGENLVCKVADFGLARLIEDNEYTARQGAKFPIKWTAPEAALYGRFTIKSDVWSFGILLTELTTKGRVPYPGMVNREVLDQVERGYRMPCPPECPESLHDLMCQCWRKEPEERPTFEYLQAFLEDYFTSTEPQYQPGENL

Compound | inhibition at 0.1 µM (EGFR (ErbB1)) [%] | inhibition at 0.1 µM (KDR (VEGFR2)) [%] | inhibition at 10 µM (ABL T315I) [%] | inhibition at 0.1 µM (FGFR2) [%] | inhibition at 0.1 µM (FGFR1) [%] | inhibition at 0.1 µM (PDGFRA (PDGFR alpha)) [%] | inhibition at 0.1 µM (SRC) [%] | inhibition at 0.1 µM (EGFR (ErbB1) T790M L858R) [%] | inhibition at 10 µM (ABL) [%] | inhibition at 0.1 µM (VEGFR1) [%] | inhibition at 0.1 µM (BRAF) [%] | inhibition at 0.1 µM (PDGFRB) [%] | EC50 (BxPC-3) [nM] | EC50 (HepG2) [nM] | EC50 (HUVEC) [nM]
COC(=O)c1cc2cc(NCc3cc(NS(=O)(=O)c4ccc(C)cc4)ccc3C)cnc2[nH]1 [OR0595] | < 50 | < 50 | < 50 | < 50 | < 50 | < 50 | < 50 | < 50 | ≥ 50 | < 50 | < 50 | < 50 | ≥ 1000 |  | 
COC(=O)c1cc2cc(NCc3cc(NC(=O)Nc4cccc(C(F)(F)F)c4)ccc3C)cnc2[nH]1 [OR0603] | < 50 | < 50 | < 50 | < 50 | < 50 | ≥ 50 | ≥ 50 | < 50 | ≥ 50 | < 50 | < 50 | < 50 | 100 to 1000 |  | 
COC(=O)c1cc2cc(NCc3cc(NC(=O)c4cccc5c4OCC5)ccc3C)cnc2[nH]1 [OR0618] | < 50 | < 50 | < 50 | < 50 | < 50 | ≥ 50 | ≥ 50 | < 50 | ≥ 50 | < 50 | < 50 | < 50 | 100 to 1000 |  | 
COC(=O)c1cc2cc(NCc3cc(NC(=O)c4ccc(-c5csc(C)n5)cc4)ccc3C)cnc2[nH]1 [OR0620] | ≥ 50 | < 50 | < 50 | < 50 | < 50 | ≥ 50 | ≥ 50 | < 50 | ≥ 50 | < 50 | < 50 | < 50 | ≥ 1000 |  | 
COC(=O)c1cc2cc(NCc3cc(NC(=O)c4ccc(CN5CCN(C)CC5)c(C(F)(F)F)c4)ccc3Cl)cnc2[nH]1 [OR0621] | < 50 | < 50 | ≥ 50 | < 50 | < 50 | < 50 | < 50 | < 50 | ≥ 50 | < 50 | < 50 | < 50 |  |  | 
COC(=O)c1cc2cc(NCc3cccc(C(=O)Nc4ccc(CN5CCN(C)CC5)c(C(F)(F)F)c4)c3)cnc2[nH]1 [OR0635] | < 50 | ≥ 50 |  | ≥ 50 |  |  |  |  |  |  | < 50 |  |  | ≥ 1000 | 100 to 1000
COC(=O)c1cc2cc(NCc3cc(NC(=O)c4cc(N5CCN(C)CC5)cc(C(F)(F)F)c4)ccc3C)cnc2[nH]1 [OR0698] | ≥ 50 | < 50 |  | < 50 |  | < 50 | ≥ 50 | < 50 |  |  | < 50 |  |  |  | 
COC(=O)c1cc2cc(NCc3cc(NC(=O)c4ccc(CN5CCN(C)CC5)c(F)c4)ccc3C)cnc2[nH]1 [OR0864] | ≥ 50 | ≥ 50 |  | ≥ 50 |  |  |  |  |  |  | ≥ 50 |  |  | ≥ 1000 | 
COC(=O)c1cc2cc(NCc3cc(NC(=O)Nc4cccnc4)ccc3C)cnc2[nH]1 [OR0896] | ≥ 50 | < 50 |  | < 50 |  |  |  |  |  |  | ≥ 50 |  |  | ≥ 1000 | 100 to 1000
COC(=O)c1cc2cc(NCc3cccc(C(=O)Nc4cccnc4)c3)cnc2[nH]1 [OR0916] | < 50 | < 50 |  | < 50 |  | < 50 |  |  |  |  | < 50 |  |  | ≥ 1000 | ≥ 1000
COC(=O)c1cc2cc(NCc3cc(NC(=O)c4ccc(CN5CCC(N(C)C)C5)c(F)c4)ccc3C)cnc2[nH]1 (centres unmarked) [OR0974] | ≥ 50 | ≥ 50 |  | < 50 |  |  |  |  |  |  | ≥ 50 |  |  | ≥ 1000 | ≥ 1000
COC(=O)c1cc2cc(NCc3cc(NC(=O)c4cc[nH]c4)ccc3C)cnc2[nH]1 [OR0975] | < 50 | < 50 |  | < 50 |  | ≥ 50 |  |  |  |  | ≥ 50 |  |  | ≥ 1000 | ≥ 1000
COC(=O)c1cc2cc(NC(=O)c3cccc(CNC(=O)c4ccc(CN5CCN(C)CC5)c(C(F)(F)F)c4)c3)cnc2[nH]1 [OR0983] | < 50 | < 50 |  | < 50 |  | < 50 |  |  |  |  | < 50 |  |  | ≥ 1000 | ≥ 1000
COC(=O)c1cc2cc(NCc3cccc(C(=O)NCc4cccc(C(F)(F)F)c4)c3)cnc2[nH]1 [OR1004] | < 50 | < 50 |  | < 50 |  | < 50 |  |  |  |  | < 50 |  |  | ≥ 1000 | ≥ 1000
